Measured values taken from article PMC7758046, “Novel piperazine–chalcone hybrids and related pyrazoline analogues targeting VEGFR-2 kinase; design, synthesis, molecular docking studies, and anticancer evaluation” (Journal of Enzyme Inhibition and Medicinal Chemistry, 2020).

Assays:
Test in all cases: NCI-60 single-dose anticancer screen
Assay type in all cases: cell-based, human
786-0 (Renal cancer) = details: 10 µM single dose
Procedure: (§1) Six compounds were selected by the NCI, according to NCI’s DTP selection guidelines, for evaluation of their anticancer activity at a single-dose of 10 µM against 60 human tumours cell lines.
(§2) In vitro cytotoxicity was performed in NCI according to reported method.

A498 (Renal cancer) = details: 10 µM single dose
Procedure: as §1, §2

ACHN (Renal cancer) = details: 10 µM single dose
Procedure: as §1, §2

BT-549 (Breast cancer) = details: 10 µM single dose
Procedure: as §1, §2

CAKI-1 (Renal cancer) = details: 10 µM single dose
Procedure: as §1, §2

CCRF-CEM (Leukaemia) = details: 10 µM single dose
Procedure: as §1, §2

COLO 205 (Colon cancer) = details: 10 µM single dose
Procedure: as §1, §2

DU-145 (Prostate cancer) = details: 10 µM single dose
Procedure: as §1, §2

HCT-15 (Colon cancer) = details: 10 µM single dose
Procedure: as §1, §2

[1] = system: HOP-62 (Non-small cell lung cancer); details: 10 µM single dose
Procedure: as §1, §2

[2] = system: HOP-92 (Non-small cell lung cancer); details: 10 µM single dose
Procedure: as §1, §2

HS 578T (Breast cancer) = details: 10 µM single dose
Procedure: as §1, §2

HT29 (Colon cancer) = system: HT29 (Colon cancer)
Procedure: as §1, §2

IGROV1 (Ovarian cancer) = details: 10 µM single dose
Procedure: as §1, §2

K-562 (Leukaemia) = system: K-562 (Leukaemia)
Procedure: as §1, §2

KM12 (Colon cancer) = details: 10 µM single dose
Procedure: as §1, §2

LOX IMVI (Melanoma) = details: 10 µM single dose
Procedure: as §1, §2

M14 (Melanoma) = details: 10 µM single dose
Procedure: as §1, §2

MALME-3M (Melanoma) = details: 10 µM single dose
Procedure: as §1, §2

MCF7 (Breast cancer) = details: 10 µM single dose
Procedure: as §1, §2

[3] = system: MDA-MB-231/ATCC (Breast cancer); details: 10 µM single dose
Procedure: as §1, §2

MDA-MB-435 (Melanoma) = details: 10 µM single dose
Procedure: as §1, §2

[4] = system: MDA-MB-468 (Breast cancer); details: 10 µM single dose
Procedure: as §1, §2

[5] = system: NCI-H226 (Non-small cell lung cancer); details: 10 µM single dose
Procedure: as §1, §2

[6] = system: NCI-H23 (Non-small cell lung cancer); details: 10 µM single dose
Procedure: as §1, §2

[7] = system: NCI-H322M (Non-small cell lung cancer); details: 10 µM single dose
Procedure: as §1, §2

[8] = system: NCI-H460 (Non-small cell lung cancer); details: 10 µM single dose
Procedure: as §1, §2

[9] = system: NCI-H522 (Non-small cell lung cancer); details: 10 µM single dose
Procedure: as §1, §2

[10] = system: NCI/ADR-RES (Ovarian cancer); details: 10 µM single dose
Procedure: as §1, §2

OVCAR-5 (Ovarian cancer) = details: 10 µM single dose
Procedure: as §1, §2

OVCAR-8 (Ovarian cancer) = details: 10 µM single dose
Procedure: as §1, §2

PC-3 (Prostate cancer) = details: 10 µM single dose
Procedure: as §1, §2

RPMI-8226 (Leukaemia) = details: 10 µM single dose
Procedure: as §1, §2

RXF 393 (Renal cancer) = details: 10 µM single dose
Procedure: as §1, §2

SF-268 (CNS cancer) = details: 10 µM single dose
Procedure: as §1, §2

SF-295 (CNS cancer) = details: 10 µM single dose
Procedure: as §1, §2

SK-MEL-2 (Melanoma) = details: 10 µM single dose
Procedure: as §1, §2

SK-MEL-28 (Melanoma) = details: 10 µM single dose
Procedure: as §1, §2

SN12C (Renal cancer) = details: 10 µM single dose
Procedure: as §1, §2

SNB-75 (CNS cancer) = details: 10 µM single dose
Procedure: as §1, §2

SR (Leukaemia) = details: 10 µM single dose
Procedure: as §1, §2

SW-620 (Colon cancer) = details: 10 µM single dose
Procedure: as §1, §2

T-47D (Breast cancer) = details: 10 µM single dose
Procedure: as §1, §2

TK-10 (Renal cancer) = details: 10 µM single dose
Procedure: as §1, §2

U251 (CNS cancer) = details: 10 µM single dose
Procedure: as §1, §2

UACC-257 (Melanoma) = details: 10 µM single dose
Procedure: as §1, §2

UO-31 (Renal cancer) = details: 10 µM single dose
Procedure: as §1, §2

[11] = Homo sapiens, read-out: cell growth inhibition

O=C(C=Cc1cccc(F)c1)c1ccc(N2CCNCC2)cc1 [Vd, 3-(3-Fluorophenyl)-1-(4-(piperazin-1-yl)phenyl)prop-2-en-1-one]
cell growth promotion (786-0 (Renal cancer)): 85.24%
cell growth promotion (A498 (Renal cancer)): 95.14%
cell growth promotion (ACHN (Renal cancer)): 84.70%
cell growth promotion (BT-549 (Breast cancer)): 73.16%
cell growth promotion (CAKI-1 (Renal cancer)): 68.63%
cell growth promotion (CCRF-CEM (Leukaemia)): 58.18%
inhibition at 10 µM (CCRF-CEM (Leukaemia); [11]): 41.8%
cell growth promotion (COLO 205 (Colon cancer)): 96.91%
cell growth promotion (DU-145 (Prostate cancer)): 77.70%
cell growth promotion (HCT-15 (Colon cancer)): 73.49%
cell growth promotion [1]: 80.17%
cell growth promotion [2]: 58.41%
inhibition at 10 µM [2, 11]: 41.6%
cell growth promotion (HS 578T (Breast cancer)): 79.41%
cell growth promotion (HT29 (Colon cancer); 10 µM single dose): 30.44%
inhibition at 10 µM (HT29 (Colon cancer); Homo sapiens, HT-29, 10 µM single dose, read-out: cell growth inhibition): 69.6%
cell growth promotion (IGROV1 (Ovarian cancer)): 67.97%
cell growth promotion (K-562 (Leukaemia); 10 µM single dose): 16.55%
inhibition at 10 µM (K-562 (Leukaemia); Homo sapiens, K562, 10 µM single dose, read-out: cell growth inhibition): 83.5%
cell growth promotion (KM12 (Colon cancer)): 77.75%
cell growth promotion (LOX IMVI (Melanoma)): 71.13%
cell growth promotion (M14 (Melanoma)): 81.16%
cell growth promotion (MALME-3M (Melanoma)): 94.15%
cell growth promotion (MCF7 (Breast cancer)): 51.72%
inhibition at 10 µM (MCF7 (Breast cancer); [11]): 48.3%
cell growth promotion [3]: 73.60%
cell growth promotion (MDA-MB-435 (Melanoma)): 94.27%
cell growth promotion [4]: 94.85%
cell growth promotion [5]: 87.11%
cell growth promotion [6]: 77.30%
cell growth promotion [7]: 75.26%
cell growth promotion [8]: 74.45%
cell growth promotion [9]: 71.57%
cell growth promotion [10]: 109.37%
cell growth promotion (OVCAR-5 (Ovarian cancer)): 94.72%
cell growth promotion (OVCAR-8 (Ovarian cancer)): 67.16%
cell growth promotion (PC-3 (Prostate cancer)): 66.01%
cell growth promotion (RPMI-8226 (Leukaemia)): 76.47%
cell growth promotion (RXF 393 (Renal cancer)): 75.94%
cell growth promotion (SF-268 (CNS cancer)): 85.41%
cell growth promotion (SF-295 (CNS cancer)): 101.78%
cell growth promotion (SK-MEL-2 (Melanoma)): 96.08%
cell growth promotion (SK-MEL-28 (Melanoma)): 109.03%
cell growth promotion (SN12C (Renal cancer)): 68.16%
cell growth promotion (SNB-75 (CNS cancer)): 85.44%
cell growth promotion (SR (Leukaemia)): 55.72%
inhibition at 10 µM (SR (Leukaemia); [11]): 44.3%
cell growth promotion (SW-620 (Colon cancer)): 61.08%
cell growth promotion (T-47D (Breast cancer)): 87.54%
cell growth promotion (TK-10 (Renal cancer)): 114.19%
cell growth promotion (U251 (CNS cancer)): 72.39%
cell growth promotion (UACC-257 (Melanoma)): 75.92%
cell growth promotion (UO-31 (Renal cancer)): 76.58%
